pIC50: −log10 of the molar value. Where two headings read alike, the source gives them in different places.
Legend:
11beta-HSD1 = 11beta-HSD1 (Homo sapiens, UniProt P28845); assay: biochemical; conditions: read-out: IC50 Target 11beta-HSD1
Excerpt: (§1) Assay protocols for Cdc25A, 11βHSD1, 11βHSD2, and AChE are described in detain in the publication of Koch M A, Wittenberg L O, Basu S, Jeyaraj D A, Gourzoulidou E, Reinecke K, Odermatt A, Waldmann H (Proc. Natl. Acad. Sci. U.S.A. 2004 Nov. 30; 101(48):16721-6) and in Koch M A et al., Proc. Natl. Acad. Sci. U.S.A. 2005 Nov. 29; 102 (48):17272-7.

11beta-HSD2 = molecular target: T1, 11beta-HSD2 (Homo sapiens, UniProt P80365); assay: 11beta-HSD2 inhibition; type: biochemical; conditions: read-out: IC50 Target 11beta-HSD2
T1 sequence (P80365 1-405): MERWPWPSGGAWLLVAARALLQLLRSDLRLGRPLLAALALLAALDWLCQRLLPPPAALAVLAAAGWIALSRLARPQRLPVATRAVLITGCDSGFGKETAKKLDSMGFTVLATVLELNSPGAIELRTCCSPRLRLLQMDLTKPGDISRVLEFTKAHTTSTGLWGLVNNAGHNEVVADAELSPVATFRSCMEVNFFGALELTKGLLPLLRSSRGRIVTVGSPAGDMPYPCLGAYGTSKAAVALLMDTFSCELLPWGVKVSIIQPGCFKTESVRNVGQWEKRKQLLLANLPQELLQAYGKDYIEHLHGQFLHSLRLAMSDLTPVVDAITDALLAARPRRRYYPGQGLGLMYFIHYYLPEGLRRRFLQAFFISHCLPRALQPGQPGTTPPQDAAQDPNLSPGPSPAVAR
Excerpt: as §1

PTP1B = molecular target: T2, PTP1B (Homo sapiens, UniProt P18031); assay: PTP1B phosphatase inhibition, general phosphatase assay using para-nitrophenylphosphate; type: biochemical; conditions: read-out: IC50 Target PTP1B
T2 sequence (P18031 1-435): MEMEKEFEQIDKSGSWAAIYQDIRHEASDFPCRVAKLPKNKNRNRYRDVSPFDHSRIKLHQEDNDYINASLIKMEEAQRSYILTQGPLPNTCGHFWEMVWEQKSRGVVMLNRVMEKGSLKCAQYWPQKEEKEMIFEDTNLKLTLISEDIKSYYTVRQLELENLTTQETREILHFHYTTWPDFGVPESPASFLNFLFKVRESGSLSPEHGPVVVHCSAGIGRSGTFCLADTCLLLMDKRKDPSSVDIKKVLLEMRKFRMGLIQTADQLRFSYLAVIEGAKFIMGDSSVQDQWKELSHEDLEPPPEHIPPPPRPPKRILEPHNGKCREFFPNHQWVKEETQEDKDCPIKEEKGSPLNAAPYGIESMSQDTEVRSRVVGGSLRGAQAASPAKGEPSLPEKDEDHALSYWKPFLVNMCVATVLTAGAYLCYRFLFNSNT
Excerpt: (§2) Assays protocols for the other enzymes mentioned herein (MtPTPA, PP1, VHR, PTP1B) are disclosed in Schweizer R A S, Atanasov, G A, Frey B M, and Odermatt A, Mol. Cell. Endocrinol. 2003, 212, 41-49 and Barratte, B., Meijer L., Galaktionov K. & Beach D, Anticancer Res. 1992, 12, 873-880. For determination of the phosphatase activity, a general phosphatase assay using para-nitrophenylphosphate was applied.

Cdc25A = molecular target: T3, Cdc25A (Homo sapiens, UniProt P30304); assay: Cdc25A phosphatase inhibition; type: biochemical; conditions: read-out: IC50 Target Cdc25A
T3 sequence (P30304 1-524): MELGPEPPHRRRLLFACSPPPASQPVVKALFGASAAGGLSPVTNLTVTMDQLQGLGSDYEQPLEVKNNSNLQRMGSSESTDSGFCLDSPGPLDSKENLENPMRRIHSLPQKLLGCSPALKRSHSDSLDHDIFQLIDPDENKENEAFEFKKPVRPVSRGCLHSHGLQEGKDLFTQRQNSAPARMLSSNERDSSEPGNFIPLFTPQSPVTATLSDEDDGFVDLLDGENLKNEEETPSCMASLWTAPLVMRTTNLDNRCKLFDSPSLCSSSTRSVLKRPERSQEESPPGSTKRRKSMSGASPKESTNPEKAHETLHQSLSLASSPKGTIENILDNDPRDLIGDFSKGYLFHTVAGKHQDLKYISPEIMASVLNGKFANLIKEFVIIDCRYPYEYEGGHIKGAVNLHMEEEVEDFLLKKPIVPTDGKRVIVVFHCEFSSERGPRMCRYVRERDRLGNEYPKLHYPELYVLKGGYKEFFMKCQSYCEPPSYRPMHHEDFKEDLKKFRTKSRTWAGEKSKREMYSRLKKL
Excerpt: as §1

AChE = AChE (Homo sapiens, UniProt P22303); assay: Acetylcholinesterase inhibition; type: biochemical
Chain of AChE (P22303 32-614): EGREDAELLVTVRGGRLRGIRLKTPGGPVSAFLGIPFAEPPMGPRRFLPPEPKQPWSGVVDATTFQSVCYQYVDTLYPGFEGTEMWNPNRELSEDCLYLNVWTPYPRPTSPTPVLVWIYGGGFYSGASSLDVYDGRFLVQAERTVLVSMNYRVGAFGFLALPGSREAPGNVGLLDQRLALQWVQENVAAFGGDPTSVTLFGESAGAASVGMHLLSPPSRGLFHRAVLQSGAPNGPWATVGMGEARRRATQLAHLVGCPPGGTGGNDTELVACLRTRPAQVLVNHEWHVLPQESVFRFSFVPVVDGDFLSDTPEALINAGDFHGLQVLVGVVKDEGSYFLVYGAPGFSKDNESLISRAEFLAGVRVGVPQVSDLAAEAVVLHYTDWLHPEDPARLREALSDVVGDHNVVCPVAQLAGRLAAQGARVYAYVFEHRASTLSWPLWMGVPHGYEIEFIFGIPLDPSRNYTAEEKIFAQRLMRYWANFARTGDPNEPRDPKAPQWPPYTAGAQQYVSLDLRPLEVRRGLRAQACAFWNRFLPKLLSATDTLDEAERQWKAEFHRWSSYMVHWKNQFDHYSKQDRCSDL
Excerpt: as §1

VHR = VHR (Homo sapiens, UniProt P51452); assay: VHR phosphatase inhibition, general phosphatase assay using para-nitrophenylphosphate; type: biochemical; conditions: read-out: IC50 Target VHR
Chain of VHR (P51452 whole entry, species assumed): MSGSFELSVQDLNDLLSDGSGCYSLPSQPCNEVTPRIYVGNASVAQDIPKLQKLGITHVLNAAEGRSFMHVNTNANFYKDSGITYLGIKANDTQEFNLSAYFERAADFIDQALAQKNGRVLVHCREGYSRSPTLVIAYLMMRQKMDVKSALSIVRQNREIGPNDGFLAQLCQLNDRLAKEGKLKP
Excerpt: as §2

PP1 = PP1 phosphatase inhibition, general phosphatase assay using para-nitrophenylphosphate; type: biochemical; conditions: read-out: IC50 Target PP1
Excerpt: as §2

MPTPA = MPTPA (Mycobacterium tuberculosis, UniProt P9WIA1); assay: MtPTPA phosphatase inhibition, general phosphatase assay using para-nitrophenylphosphate; type: biochemical
Chain of MPTPA (P9WIA1 whole entry): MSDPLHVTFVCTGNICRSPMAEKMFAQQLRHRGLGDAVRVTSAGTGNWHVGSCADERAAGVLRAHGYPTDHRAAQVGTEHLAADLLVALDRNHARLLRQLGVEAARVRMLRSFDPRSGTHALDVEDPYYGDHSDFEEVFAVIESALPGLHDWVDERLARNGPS
Excerpt: as §2

Chain of 11beta-HSD1 (P28845 whole entry): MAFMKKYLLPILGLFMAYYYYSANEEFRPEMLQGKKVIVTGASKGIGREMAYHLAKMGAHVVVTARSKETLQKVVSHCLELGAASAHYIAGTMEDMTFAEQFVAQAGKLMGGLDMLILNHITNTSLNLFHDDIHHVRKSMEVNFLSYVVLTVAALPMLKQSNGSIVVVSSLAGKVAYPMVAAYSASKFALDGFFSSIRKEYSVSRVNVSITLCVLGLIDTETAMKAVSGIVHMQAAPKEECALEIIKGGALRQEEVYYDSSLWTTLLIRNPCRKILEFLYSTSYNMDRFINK

Row | Compound | pIC50 (11beta-HSD1) | pIC50 (11beta-HSD2) | pIC50 (PTP1B) | pIC50 (Cdc25A) | pIC50 (AChE) | pIC50 (AChE; read-out: IC50 Target AChE) | pIC50 (VHR) | pIC50 (PP1) | pIC50 (MPTPA)
1 | CCc1cc(OC)ccc1/C=C1\C[C@@]2(C)C(=C(C)C1=O)CCC[C@@H]2O [Compound 15, (3E,4aS,5S)-3-(2-Ethyl-4-methoxybenzyliden)-4,4a,5,6,7,8-hexahydro-5-hydroxy-1,4a-dimethylnaphthalen-2(3H)-one] | > 5.00 | 4.30 to 5.00 | – | – | – | – | – | – | –
2 | C/C=C/C=C1\C[C@@]2(C)C(=C(C)C1=O)CCC[C@@H]2O [Compound 29, (3E,4aS,5S)-3-[(E)-But-2-enyliden]-4,4a,5,6,7,8-hexahydro-5-hydroxy-1,4a-dimethylnaphthalen-2(3H)-one] | > 5.00 | > 5.00 | > 5.00 | 4.30 to 5.00 | > 5.00 | – | – | – | –
3 | CC(=O)Oc1ccc(/C=C2\C[C@@]3(C)C(=C(C)C2=O)CCC[C@@H]3O)cc1 [Compound 31, 4-{(1E)-[(4S,4aS)-1,2,3,4,4a,5-Hexahydro-4-hydroxy-4a,8-dimethyl-7-oxonaphthalen-6(7H)-yliden]methyl}phenylacetat] | > 5.00 | 4.30 to 5.00 | 4.30 to 5.00 | – | – | > 5.00 | – | – | –
4 | CCC/C=C1\C[C@@]2(C)C(=C(C)C1=O)CCC[C@@H]2O [Compound 32, (3E,4aS,5S)-3-Butyliden-4,4a,5,6,7,8-hexahydro-5-hydroxy-1,4a-dimethylnaphthalen-2(3H)-one] | > 5.00 | > 5.00 | 4.30 to 5.00 | 4.30 to 5.00 | > 5.00 | – | > 5.00 | 4.30 to 5.00 | > 5.00
5 | CC1=C2CC(c3ccccc3)CC(O)C2CCC1=O (stereo not shown) [Compound 167, 5-Hydroxy-1-methyl-7-phenyl-4,4a,5,6,7,8,-hexahydro-3H-naphthalen-2-one] | – | – | – | – | – | > 5.00 | – | – | –
6 | O=C1C(=Cc2ccco2)CCC2CC=CCC12 (stereo not shown) [Compound 403, 2-Furan-2-ylmethylene-3,4,4a,5,8,8a-hexahydro-2H-naphthalen-1-one] | > 5.00 | > 5.00 | – | – | – | – | – | – | –

Reference: US20090062401A1, “DECALINE-DERIVED COMPOUNDS AS […] ACTIVE AGENTS” (UNIVERSITAT DORTMUND, priority 2004, published 2009)
